Experimental data reported in article PMC4286194 (Biochemical Journal, 2015).

Assays:
[1] = system: RAW264.7 macrophages expressing HA-SIK2[T96Q]; test: IL-10 and Nurr77 mRNA in macrophages expressing drug-resistant SIK2; format: cell-based; conditions: cells expressing drug-resistant SIK2[T96Q]; drug 1 h, LPS 1 h
Description: Primary macrophages were generated by differentiating bone marrow from 6- to 12-week-old C57BL/6 mice for 7 days in Dulbecco's modified Eagle's medium (DMEM) supplemented with 5 ng/ml recombinant M-CSF (R&D systems), 2 mM glutamine, 10% FBS, penicillin and streptomycin. Bone-marrow-derived macrophages were differentiated on non-tissue-culture-treated plastic, harvested and replated at a density of 100000 cells/cm^2 per 0.1 ml on tissue culture-treated plastic in fresh medium before stimulation on day 8. RAW264.7 cells were cultured in DMEM containing 10% FBS, 2 mM glutamine and penicillin and streptomycin. […] Cells were treated for 1 h with or without inhibitors and then stimulated for up to 24 h with either 1 μg/ml Pam3CSK4 or 100 ng/ml LPS.
mRNA was extracted from cells using the MicroElute Total RNA kit following the manufacturers’ instructions (Omega Bio-Tek). cDNA was generated from 0.5 μg of total RNA using the iScript cDNA synthesis kit and quantified by quantitative real-time PCR (qPCR) using the SsoFast EvaGreen Supermix on a CFX384 real-time system (Bio-Rad Laboratories). The relative expression of each gene was calculated from CT values using the Pfaffl method and was normalized against the mRNA levels of housekeeping genes including 18S RNA and GAPDH.

[2] = molecular target: TTBK2 (Homo sapiens, UniProt Q6IQ55); test: Kinase profiling; format: biochemical
Sequence of TTBK2 (Q6IQ55 whole entry): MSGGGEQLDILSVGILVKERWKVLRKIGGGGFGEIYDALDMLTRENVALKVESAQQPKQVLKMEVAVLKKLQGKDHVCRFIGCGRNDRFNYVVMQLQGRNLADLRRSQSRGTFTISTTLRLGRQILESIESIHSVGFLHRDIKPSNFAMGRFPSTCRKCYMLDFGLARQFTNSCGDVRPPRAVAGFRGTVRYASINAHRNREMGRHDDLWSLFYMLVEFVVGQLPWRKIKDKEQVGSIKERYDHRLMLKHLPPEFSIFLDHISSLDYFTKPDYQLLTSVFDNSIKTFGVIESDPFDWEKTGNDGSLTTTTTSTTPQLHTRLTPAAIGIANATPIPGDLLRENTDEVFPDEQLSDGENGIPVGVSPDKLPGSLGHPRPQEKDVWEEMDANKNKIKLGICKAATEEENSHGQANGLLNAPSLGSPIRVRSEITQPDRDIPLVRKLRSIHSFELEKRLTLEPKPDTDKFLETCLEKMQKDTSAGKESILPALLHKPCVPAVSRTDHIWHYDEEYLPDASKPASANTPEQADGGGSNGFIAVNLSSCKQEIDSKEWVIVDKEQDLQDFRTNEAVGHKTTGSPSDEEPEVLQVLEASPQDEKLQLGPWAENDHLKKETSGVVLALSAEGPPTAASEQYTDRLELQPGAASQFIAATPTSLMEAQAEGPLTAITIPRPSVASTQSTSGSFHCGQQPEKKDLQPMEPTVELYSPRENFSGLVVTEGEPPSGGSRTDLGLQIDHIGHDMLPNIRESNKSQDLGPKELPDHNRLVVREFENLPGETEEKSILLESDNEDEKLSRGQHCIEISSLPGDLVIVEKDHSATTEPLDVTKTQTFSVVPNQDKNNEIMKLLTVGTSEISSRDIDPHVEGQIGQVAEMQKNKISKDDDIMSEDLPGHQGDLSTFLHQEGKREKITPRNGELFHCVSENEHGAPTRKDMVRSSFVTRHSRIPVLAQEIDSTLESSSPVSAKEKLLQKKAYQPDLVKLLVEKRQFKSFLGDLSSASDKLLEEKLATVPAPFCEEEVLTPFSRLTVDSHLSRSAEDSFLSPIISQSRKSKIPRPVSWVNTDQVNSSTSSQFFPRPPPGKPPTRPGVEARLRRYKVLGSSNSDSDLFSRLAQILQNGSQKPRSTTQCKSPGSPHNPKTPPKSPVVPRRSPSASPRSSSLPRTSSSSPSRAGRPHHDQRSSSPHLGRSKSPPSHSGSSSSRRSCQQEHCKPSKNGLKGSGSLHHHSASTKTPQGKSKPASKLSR

[3] = molecular target: p38 alpha MAPK (Homo sapiens, UniProt Q16539); test: Kinase profiling; format: biochemical
Sequence of p38 alpha MAPK (Q16539 whole entry): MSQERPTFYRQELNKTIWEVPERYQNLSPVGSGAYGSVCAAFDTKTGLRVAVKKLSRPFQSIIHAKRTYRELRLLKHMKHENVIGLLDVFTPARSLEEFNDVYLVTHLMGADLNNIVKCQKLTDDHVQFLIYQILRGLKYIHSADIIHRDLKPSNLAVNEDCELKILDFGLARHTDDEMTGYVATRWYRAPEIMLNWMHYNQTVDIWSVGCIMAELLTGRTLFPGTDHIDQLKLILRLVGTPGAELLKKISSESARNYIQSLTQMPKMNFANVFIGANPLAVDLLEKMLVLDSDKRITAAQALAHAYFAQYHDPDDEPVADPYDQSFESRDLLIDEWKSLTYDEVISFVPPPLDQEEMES

[4] = molecular target: PAK5 (Homo sapiens, UniProt Q9P286); test: Kinase profiling; format: biochemical
Sequence of PAK5 (Q9P286 whole entry): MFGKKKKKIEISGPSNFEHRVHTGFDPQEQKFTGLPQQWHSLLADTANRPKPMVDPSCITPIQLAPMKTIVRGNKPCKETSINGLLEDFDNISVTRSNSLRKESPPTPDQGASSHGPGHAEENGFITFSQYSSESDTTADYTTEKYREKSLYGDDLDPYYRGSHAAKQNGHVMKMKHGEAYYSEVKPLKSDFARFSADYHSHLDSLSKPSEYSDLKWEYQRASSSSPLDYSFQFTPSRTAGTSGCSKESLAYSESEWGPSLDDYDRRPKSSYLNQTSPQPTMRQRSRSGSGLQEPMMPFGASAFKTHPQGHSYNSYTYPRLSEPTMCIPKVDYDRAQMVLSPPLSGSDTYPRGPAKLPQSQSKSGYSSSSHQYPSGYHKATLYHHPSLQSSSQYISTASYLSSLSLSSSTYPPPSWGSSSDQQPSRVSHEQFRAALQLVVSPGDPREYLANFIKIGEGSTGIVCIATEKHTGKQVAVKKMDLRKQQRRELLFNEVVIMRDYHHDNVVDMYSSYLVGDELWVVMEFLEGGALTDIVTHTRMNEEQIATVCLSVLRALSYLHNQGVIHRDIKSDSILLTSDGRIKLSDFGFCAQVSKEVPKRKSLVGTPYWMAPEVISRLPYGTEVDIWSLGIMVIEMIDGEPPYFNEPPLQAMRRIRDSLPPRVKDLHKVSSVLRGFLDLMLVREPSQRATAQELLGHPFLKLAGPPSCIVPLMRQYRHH

[5] = molecular target: T1, PDK1 (Homo sapiens, UniProt O15530); test: Kinase profiling; format: biochemical
T1 sequence (O15530 1-556): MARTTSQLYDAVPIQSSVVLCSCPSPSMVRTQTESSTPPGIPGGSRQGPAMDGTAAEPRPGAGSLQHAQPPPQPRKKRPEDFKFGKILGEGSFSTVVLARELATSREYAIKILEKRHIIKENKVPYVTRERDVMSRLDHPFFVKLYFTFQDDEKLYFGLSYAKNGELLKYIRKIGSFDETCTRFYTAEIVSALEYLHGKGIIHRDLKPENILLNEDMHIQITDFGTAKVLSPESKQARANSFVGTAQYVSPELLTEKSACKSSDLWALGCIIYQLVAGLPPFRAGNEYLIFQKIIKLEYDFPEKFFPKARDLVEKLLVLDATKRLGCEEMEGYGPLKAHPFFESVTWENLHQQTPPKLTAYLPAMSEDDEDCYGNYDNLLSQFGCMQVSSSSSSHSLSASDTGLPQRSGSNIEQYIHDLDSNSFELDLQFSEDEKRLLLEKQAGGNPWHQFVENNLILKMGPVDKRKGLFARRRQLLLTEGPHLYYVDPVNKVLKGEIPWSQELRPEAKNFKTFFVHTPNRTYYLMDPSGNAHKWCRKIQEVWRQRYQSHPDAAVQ

[6] = molecular target: RIPK2 (Homo sapiens, UniProt O43353); test: Kinase profiling; format: biochemical
Sequence of RIPK2 (O43353 whole entry): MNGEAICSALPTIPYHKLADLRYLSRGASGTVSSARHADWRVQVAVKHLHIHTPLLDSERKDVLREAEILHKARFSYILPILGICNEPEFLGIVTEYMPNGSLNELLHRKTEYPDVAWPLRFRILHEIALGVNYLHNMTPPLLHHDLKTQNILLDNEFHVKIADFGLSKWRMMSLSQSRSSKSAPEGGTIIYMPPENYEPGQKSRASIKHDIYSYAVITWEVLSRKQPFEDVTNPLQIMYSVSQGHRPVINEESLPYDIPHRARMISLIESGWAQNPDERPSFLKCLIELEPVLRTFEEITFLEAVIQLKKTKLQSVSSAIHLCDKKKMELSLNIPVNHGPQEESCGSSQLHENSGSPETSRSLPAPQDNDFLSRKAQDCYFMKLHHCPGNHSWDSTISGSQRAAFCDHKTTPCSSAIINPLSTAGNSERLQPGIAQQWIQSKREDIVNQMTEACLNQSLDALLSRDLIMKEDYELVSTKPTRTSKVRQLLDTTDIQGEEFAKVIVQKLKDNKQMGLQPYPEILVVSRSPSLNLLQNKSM

[7] = molecular target: MAP4K5 (Homo sapiens, UniProt Q9Y4K4); test: Kinase profiling; format: biochemical
Sequence of MAP4K5 (Q9Y4K4 whole entry): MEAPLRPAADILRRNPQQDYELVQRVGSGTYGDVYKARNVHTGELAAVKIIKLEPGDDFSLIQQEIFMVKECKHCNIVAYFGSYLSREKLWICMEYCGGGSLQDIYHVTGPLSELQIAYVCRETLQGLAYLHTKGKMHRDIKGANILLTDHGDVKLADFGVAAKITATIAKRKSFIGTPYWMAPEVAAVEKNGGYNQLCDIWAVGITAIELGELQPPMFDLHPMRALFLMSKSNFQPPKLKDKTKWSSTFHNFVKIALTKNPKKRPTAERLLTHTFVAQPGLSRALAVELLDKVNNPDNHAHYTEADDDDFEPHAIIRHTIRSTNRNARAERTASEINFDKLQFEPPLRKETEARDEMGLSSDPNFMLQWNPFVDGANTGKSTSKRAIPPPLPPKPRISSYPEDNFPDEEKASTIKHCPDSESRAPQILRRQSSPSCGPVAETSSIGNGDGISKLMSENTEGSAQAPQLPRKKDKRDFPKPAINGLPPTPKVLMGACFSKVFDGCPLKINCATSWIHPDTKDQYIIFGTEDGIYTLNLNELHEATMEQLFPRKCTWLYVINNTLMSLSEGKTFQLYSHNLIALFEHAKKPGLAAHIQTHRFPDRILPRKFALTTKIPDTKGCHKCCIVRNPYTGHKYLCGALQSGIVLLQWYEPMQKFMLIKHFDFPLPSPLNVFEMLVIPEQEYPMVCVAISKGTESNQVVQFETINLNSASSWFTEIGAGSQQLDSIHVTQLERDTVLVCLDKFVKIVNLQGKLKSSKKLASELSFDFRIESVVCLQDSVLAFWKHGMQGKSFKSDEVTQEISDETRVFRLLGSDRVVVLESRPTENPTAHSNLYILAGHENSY

[8] = molecular target: T2, BRSK1 (Homo sapiens, UniProt Q8TDC3); test: Kinase profiling; format: biochemical
T2 sequence (Q8TDC3 1-778): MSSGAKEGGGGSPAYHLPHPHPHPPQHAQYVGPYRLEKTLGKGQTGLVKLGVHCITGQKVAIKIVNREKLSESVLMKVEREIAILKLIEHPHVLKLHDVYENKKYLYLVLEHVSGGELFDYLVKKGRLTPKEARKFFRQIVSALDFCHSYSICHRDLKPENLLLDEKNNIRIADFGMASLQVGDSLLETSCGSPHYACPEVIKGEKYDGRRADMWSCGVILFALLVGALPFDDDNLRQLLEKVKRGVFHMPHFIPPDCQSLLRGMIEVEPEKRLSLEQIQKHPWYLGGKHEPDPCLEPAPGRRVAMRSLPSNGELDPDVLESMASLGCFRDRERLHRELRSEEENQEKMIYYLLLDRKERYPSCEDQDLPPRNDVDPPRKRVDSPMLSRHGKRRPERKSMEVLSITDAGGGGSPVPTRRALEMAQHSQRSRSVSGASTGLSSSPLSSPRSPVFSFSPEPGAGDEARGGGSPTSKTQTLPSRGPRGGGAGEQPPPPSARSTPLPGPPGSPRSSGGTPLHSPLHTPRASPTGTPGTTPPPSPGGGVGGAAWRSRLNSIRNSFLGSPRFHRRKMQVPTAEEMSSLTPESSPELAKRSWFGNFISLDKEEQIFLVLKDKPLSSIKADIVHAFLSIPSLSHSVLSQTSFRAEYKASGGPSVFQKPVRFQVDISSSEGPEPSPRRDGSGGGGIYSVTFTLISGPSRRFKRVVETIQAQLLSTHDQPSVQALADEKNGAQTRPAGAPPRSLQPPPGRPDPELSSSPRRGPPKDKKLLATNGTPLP

Compound | LPS-stimulated CREB-dependent gene transcription including IL-10 and Nurr77 [1] | remaining activity at 0.1 µM [2] [%] | remaining activity at 1 µM [2] [%] | remaining activity at 0.1 µM [3] [%] | remaining activity at 1 µM [3] [%] | remaining activity at 0.1 µM [4] [%] | remaining activity at 1 µM [4] [%] | remaining activity at 0.1 µM [5] [%] | remaining activity at 1 µM [5] [%] | remaining activity at 0.1 µM [6] [%] | remaining activity at 1 µM [6] [%] | remaining activity at 0.1 µM [7] [%] | remaining activity at 0.1 µM [8] [%] | remaining activity at 1 µM [8] [%] | remaining activity at 1 µM ([7]; 1 µM) [%]
Cc1nc(Nc2ncc(C(=O)Nc3c(C)cccc3Cl)s2)cc(N2CCN(CCO)CC2)n1 [Dasatinib] | little effect | 110 ± 5 | 117 ± 7 | 79 ± 15 | 29 ± 2 | 131 ± 12 | 138 ± 7 | 94 ± 9 | 92 ± 1 | 5 | 10 ± 12 | 22 ± 1 | 126 | 123 ± 1 | 
COc1cc(Nc2c(C#N)cnc3cc(OCCCN4CCN(C)CC4)c(OC)cc23)c(Cl)cc1Cl [Bosutinib, bosutinib] | little effect | 87 ± 6 | 92 ± 6 | 97 ± 4 | 72 ± 3 | 105 ± 18 | 129 ± 5 | 92 ± 16 | 98 | 86 ± 2 | 45 ± 1 | 0 | 101 ± 1 | 112 ± 5 | 1
